Experimental data taken from ChEMBL document CHEMBL1201862, “PubChem BioAssay data set” (2004).
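The compound was tested at five concentrations on cells cultured in 96-well plates, with a 48-hour exposure period. GI50 = concentration required for 50% inhibition of growth.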 The source made the active and inactive calls. Rule as the data show it: active = GI50 up to about 1.1 µM and inactive = higher.

Legend:
Assay in all cases: DTP human tumour cell line panel, 48 h
786-0 = tested on: 786-0
UACC-257 = tested on: UACC-257
T47D = tested on: T47D
DU-145 = tested on: DU-145
SK-MEL-5 = tested on: SK-MEL-5
HOP-62 = tested on: HOP-62
OVCAR-5 = tested on: OVCAR-5
RPMI-8226 = tested on: RPMI-8226
KM12 = tested on: KM12
HL-60 = tested on: HL-60
U-251 = tested on: U-251
SNB-75 = tested on: SNB-75
SF-295 = tested on: SF-295
SR = tested on: SR
NCI-H226 = tested on: NCI-H226
SK-OV-3 = tested on: SK-OV-3
SK-MEL-2 = tested on: SK-MEL-2
A549 = tested on: A549
MCF7 = tested on: MCF7
K562 = tested on: K562

Structure (SMILES) | GI50 (786-0) | GI50 (UACC-257) | GI50 (T47D) | GI50 (DU-145) | GI50 (SK-MEL-5) | GI50 (HOP-62) | GI50 (OVCAR-5) | GI50 (RPMI-8226) | GI50 (KM12) | GI50 (HL-60) | GI50 (U-251) | GI50 (SNB-75) | GI50 (SF-295) | GI50 (SR) | GI50 (NCI-H226) | GI50 (SK-OV-3) | GI50 (SK-MEL-2) | GI50 (A549) | GI50 (MCF7) | GI50 (K562)
CCc1nc2cc3cccnc3c(Cl)c2[nH]c1=O | 79.8 µM (inactive) | > 100 µM (inactive) | 63.4 µM (inactive) | > 100 µM (inactive) | > 100 µM (inactive) | > 100 µM (inactive) | > 100 µM (inactive) | > 100 µM (inactive) | > 100 µM (inactive) | > 100 µM (inactive) | 61.5 µM (inactive) | 17.8 µM (inactive) | > 100 µM (inactive) | > 100 µM (inactive) | > 100 µM (inactive) | 95.9 µM (inactive) | > 100 µM (inactive) | > 100 µM (inactive) | 5.86 µM (inactive) | > 100 µM (inactive)
O=C1OC[C@@H]2Cc3c([nH]c4ccccc34)[C@@H](c3cc(O)c(O)c(O)c3)N12 | 20.6 µM (inactive) | 2.99 µM (inactive) | 37 µM (inactive) | 68.2 µM (inactive) | 8.39 µM (inactive) | 21.4 µM (inactive) | 19.7 µM (inactive) | 27.5 µM (inactive) | 44.5 µM (inactive) | 2.72 µM (inactive) | 25.3 µM (inactive) | 3.29 µM (inactive) | 2.57 µM (inactive) | 13.9 µM (inactive) | 13.5 µM (inactive) | > 100 µM (inactive) | 3.14 µM (inactive) | > 100 µM (inactive) | 21.2 µM (inactive) | 3.91 µM (inactive)
C=C1CC(C)(COc2ccc3ccc(=O)oc3c2)OC1=O (stereo not given) | 1.42 µM (inactive) | 0.671 µM (active) | 3.66 µM (inactive) | 3.22 µM (inactive) | 2.34 µM (inactive) | 16 µM (inactive) | 6.73 µM (inactive) | 0.757 µM (active) | 4.07 µM (inactive) | 0.256 µM (active) | 13 µM (inactive) | 9.57 µM (inactive) | 5.68 µM (inactive) | 1.08 µM (active) | 11.4 µM (inactive) | 8.15 µM (inactive) | 1.31 µM (inactive) | 13.5 µM (inactive) | 1.48 µM (inactive) | 0.581 µM (active)
C=C1C(=O)O[C@@]23C1CC[C@@H](C)C2CC[C@@]1(C)OC31 (stereo not given in full) | 5.71 µM (inactive) | 6.75 µM (inactive) | 4.03 µM (inactive) | 3.85 µM (inactive) | 3.24 µM (inactive) | 10 µM (inactive) | 12.6 µM (inactive) | 2.9 µM (inactive) | 12.8 µM (inactive) | 2.72 µM (inactive) | 6.35 µM (inactive) | 3.13 µM (inactive) | 18.2 µM (inactive) | 3.71 µM (inactive) | 23.9 µM (inactive) | 16 µM (inactive) | 5.58 µM (inactive) | 21.2 µM (inactive) | 5.96 µM (inactive) | 7.78 µM (inactive)
NC12Oc3cc(O)cc(O)c3C1(c1ccc(Cl)cc1)c1c(O)cc(O)cc1O2 (stereo not given) | 61.8 µM (inactive) | 79.1 µM (inactive) | > 100 µM (inactive) | > 100 µM (inactive) | 37.5 µM (inactive) | 68.9 µM (inactive) | > 100 µM (inactive) | 33.4 µM (inactive) | > 100 µM (inactive) | 27.4 µM (inactive) | 65.8 µM (inactive) | 89.1 µM (inactive) | 96.8 µM (inactive) | 22.5 µM (inactive) | > 100 µM (inactive) | > 100 µM (inactive) | 36.6 µM (inactive) | > 100 µM (inactive) | 59.8 µM (inactive) | 30.8 µM (inactive)
CC(=O)/C=C/C1=C(C)CCCC1(C)CC(C)C (stereo not given) | 19 µM (inactive) | 22.2 µM (inactive) | 15.3 µM (inactive) | 69.3 µM (inactive) | 16.9 µM (inactive) | 57.9 µM (inactive) | 61.5 µM (inactive) | 13.7 µM (inactive) | 34.8 µM (inactive) | 11.7 µM (inactive) | 26.7 µM (inactive) | 21.6 µM (inactive) | 34.2 µM (inactive) | 16 µM (inactive) | 33.5 µM (inactive) | 55.5 µM (inactive) | 19.6 µM (inactive) | 24.9 µM (inactive) | 25.2 µM (inactive) | 16 µM (inactive)
CC(=O)OCC1OC(n2cc(F)c(=O)[nH]c2=O)C(OC(C)=O)C1OC(C)=O (stereo not given) | 12.2 µM (inactive) | 47.3 µM (inactive) | 19.2 µM (inactive) | 70.5 µM (inactive) | 56 µM (inactive) | 44 µM (inactive) | 33.8 µM (inactive) | 19.8 µM (inactive) | 8.41 µM (inactive) | 27.9 µM (inactive) | 13.4 µM (inactive) | 23.6 µM (inactive) | 52.7 µM (inactive) | 6.73 µM (inactive) | 59.8 µM (inactive) | > 73.5 µM (inactive) | 28.2 µM (inactive) | 16.7 µM (inactive) | 1.71 µM (inactive) | 9.27 µM (inactive)
